Assay results reported in patent US20210139484A1, “DIHYDROISOQUINOLINE-2(1H)-CARBOXAMIDE AND RELATED COMPOUNDS AND THEIR USE IN TREATING MEDICAL CONDITIONS” (GOSSAMER BIO SERVICES, INC., priority 2018, published 2021).

biological target: T1, human HPK1 protein (Homo sapiens, UniProt Q92918); assay: Human HPK1 protein TR-FRET assay; format: biochemical; conditions: 1 mM ATP, Table 19
T1 construct: recombinant human HPK1 protein (a.a. 1-346) was expressed in Sf9 insect cells; GST (N); purchased Signalchem M23-11G; host or cells: Sf9 insect cells (baculovirus)
T1 sequence (Q92918 1-346): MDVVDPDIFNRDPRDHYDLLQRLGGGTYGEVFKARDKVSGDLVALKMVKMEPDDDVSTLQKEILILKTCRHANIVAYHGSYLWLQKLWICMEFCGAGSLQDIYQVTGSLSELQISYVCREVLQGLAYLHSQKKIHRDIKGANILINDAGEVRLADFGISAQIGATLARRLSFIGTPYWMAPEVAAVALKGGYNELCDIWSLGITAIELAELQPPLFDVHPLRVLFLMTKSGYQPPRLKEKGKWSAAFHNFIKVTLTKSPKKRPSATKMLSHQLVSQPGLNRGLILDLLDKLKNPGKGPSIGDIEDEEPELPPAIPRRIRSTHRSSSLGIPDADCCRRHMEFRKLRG
In short: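 GST-tagged HPK1 (a.a. 1-346, Sf9-expressed) at 10 nM phosphorylated 100 nM ULight CREBtide with 1 mM ATP in Tris pH 7.5, MgCl2, NP-40, DTT, 1% DMSO, 60 minutes at room temperature. Phospho-Ser133 detected by Eu-antibody TR-FRET (665/615 nm ratio); IC50 from 4-parameter fit against DMSO control.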

With `CCN1CCN(Cc2ccc(NC(=O)N3CCc4cc(F)c(Oc5ncnn6cccc56)cc4C3C)cc2C(F)(F)F)CC1` (centres unmarked) [IV-33] as the compound, how does the IC50 read?
Its IC50 is < 500 nM.

`CCN1CCN(Cc2ccc(NC(=O)N3CCc4ccc(Oc5ccnn6cc(Cl)cc56)cc4C3)cc2C(F)(F)F)CC1` [II-23] was tested. Which IC50 did it give?
The IC50 was < 500 nM.

With `Cc1cc2c(Oc3ccc4c(c3)CN(C(=O)Nc3cnc(OC5CCN(C)CC5O)c(C(F)(F)F)c3)CC4C)ccnc2[nH]1` (centres unmarked) [IV-41] as the compound, how does the IC50 read?
Its IC50 is < 500 nM.

Which IC50 does the source give for `Cc1cc2c(Oc3ccc4c(c3)[C@H](C)N(C(=O)Nc3cnc(OCCN(C)C)c(C(F)(F)F)c3)CC4)ccnc2[nH]1` [VI-15] here?
The IC50 was 500 to 5000 nM.

For `CCC1CN(C(=O)Nc2ccc(CN3CCN(CC)CC3)c(C(F)(F)F)c2)Cc2cc(Oc3ccnc4[nH]ccc34)ccc21` (centres unmarked) [IV-21], which IC50 is on record?
Its IC50 is < 500 nM.

Which IC50 does the source give for `CCN1CCN(Cc2ccc(NC(=O)N3CCc4ccc(Oc5ccnc6[nH]ncc56)cc4[C@@H]3C)cc2C(F)(F)F)CC1` [V-5] here?
Its IC50 is < 500 nM.

same assay, conditions: 1 mM ATP, Table 20

Which IC50 does the source give for `CC[C@@H]1CN(C(=O)Nc2ccc(CN3CCN(CCO)CC3)c(C(F)F)c2)Cc2cc(Oc3ccnc4[nH]c(C5CC5)cc34)ccc21` [XV-24] here?
The IC50 was < 500 nM.

For `C[C@@H]1Cc2ccc(Oc3ccnc4[nH]c(C(=O)N(C)C)cc34)cc2CN1C(=O)Nc1cnc(OC2CCN(C)CC2)c(C(F)(F)F)c1` [XVI-7], which IC50 is on record?
Its IC50 is < 500 nM.

`CCN1CCN(Cc2ccc(NC(=O)N3Cc4cc(Oc5ccnc6[nH]c(C7CC7)nc56)cnc4C(C)C3)cc2C(F)(F)F)CC1` (single isomer, unassigned) [XIV-15] was tested. Which IC50 did it give?
The IC50 was < 500 nM.

Which IC50 does the source give for `CCN1CCN(Cc2ccc(NC(=O)N3Cc4cc(Oc5ccnc6[nH]c(C)cc56)cnc4[C@H](C)C3)cc2C(F)(F)F)CC1` [XI-5] here?
The IC50 was < 500 nM.

`CN1CCN(Cc2ncc(NC(=O)N3CCc4cc(F)c(Nc5c(F)cnc6[nH]c(-c7cnn(C)c7)cc56)cc4C3)cc2C(F)(F)F)CC1` [XVII-4] was tested. Which IC50 did it give?
The IC50 was < 500 nM.

For `CC[C@H]1CN(C(=O)Nc2ccc(CN3CCN(C)CC3)c(C(F)(F)F)c2)Cc2cc(Oc3ccnc4[nH]c(-c5noc(C)n5)cc34)cnc21` [XIV-133], which IC50 is on record?
Its IC50 is < 500 nM.

For `CCC1CN(C(=O)Nc2ccc(CN3CCN(CC)CC3)c(C(F)(F)F)c2)Cc2cc(Oc3ncnc4[nH]c(C)cc34)cnc21` (centres unmarked) [XIV-4], which IC50 is on record?
The IC50 was < 500 nM.

How did the IC50 turn out when `CC[C@H]1CN(C(=O)Nc2ccc(CN3CCNCC3)c(C(F)(F)F)c2)Cc2cc(Oc3ccnc4[nH]c(CO)cc34)cnc21` [XIV-55] was run?
Its IC50 is < 500 nM.

With `CC[C@H]1CN(C(=O)Nc2ccc(CN3CCN(C)CC3)c(C(F)(F)F)c2)Cc2cc(Oc3ccnc4[nH]c(CS(C)(=O)=O)cc34)cnc21` [XIV-150] as the compound, how does the IC50 read?
The IC50 was < 500 nM.

Which IC50 does the source give for `C[C@H]1CN(C(=O)Nc2ccc(CN3CCN(C)CC3)c(C(F)(F)F)c2)Cc2cc(Oc3ccnc4[nH]c(C#N)cc34)ccc21` [XV-34] here?
Its IC50 is < 500 nM.

For `CN1CCN(Cc2ccc(NC(=O)N3Cc4cc(Oc5ccnc6[nH]c(C7(O)CC7)cc56)ccc4C(C(F)(F)F)C3)cc2C(F)(F)F)CC1` (centres unmarked) [XVIII-12], which IC50 is on record?
The IC50 was < 500 nM.
